Reference: ChEMBL document CHEMBL5053499, “Indole Alkaloids from a Soil-Derived Clonostachys rosea” (J Nat Prod, 2021)
pIC50: −log10 of the molar value. Values after ≈ are worked out from the molar mass of the structure shown. Active and inactive are the calls of the source. The rule behind the calls is not given here.

Legend:
Bacillus subtilis = assay: Antimicrobial activity against Bacillus subtilis assessed as reduction in bacterial growth at 100 ug/ml measured after 48 hrs by double dilution method; type: functional; conditions: for Activity: dose 100.0 µg/ml
Fusarium oxysporum = assay: Antifungal activity against Fusarium oxysporum assessed as inhibition of fungal growth measured after 72 hrs by double dilution method; type: functional
Phytophthora capsici = assay: Antifungal activity against Phytophthora capsici assessed as inhibition of fungal growth measured after 72 hrs by double dilution method; type: functional, organism-based
Alternaria alternata = assay: Antifungal activity against Alternaria alternata assessed as inhibition of fungal growth measured after 72 hrs by double dilution method; type: functional, organism-based
Pseudomonas sp. [1] = assay: Antimicrobial activity against Pseudomonas sp. assessed as reduction in bacterial growth at 100 ug/ml measured after 48 hrs by double dilution method; type: functional, organism-based; conditions: dose 100.0 µg/ml
Staphylococcus aureus = assay: Antimicrobial activity against Staphylococcus aureus assessed as reduction in bacterial growth at 100 ug/ml measured after 48 hrs by double dilution method; type: functional, organism-based; conditions: dose 100.0 µg/ml
[2] = system: Pseudomonas syringae pv. actinidiae; assay: Antimicrobial activity against Pseudomonas syringae pv. actinidiae assessed as reduction in bacterial growth measured at 100 ug/ml after 48 hrs by double dilution method; type: functional; conditions: dose 100.0 µg/ml
HepG2 = assay: Cytotoxicity against human HepG2 cells assessed as reduction in cell viability measured after 48 hrs by CCK8 assay; type: functional, cell-based; conditions: HepG2, 48 h
HeLa = assay: Cytotoxicity against human HeLa cells assessed as reduction in cell viability measured after 48 hrs by CCK8 assay; type: functional, cell-based
Bacillus cereus = assay: Antimicrobial activity against Bacillus cereus assessed as reduction in bacterial growth at 100 ug/ml measured after 48 hrs by double dilution method; type: functional, organism-based; conditions: dose 100.0 µg/ml
Escherichia coli = assay: Antimicrobial activity against Escherichia coli assessed as reduction in bacterial growth at 100 ug/ml measured after 48 hrs by double dilution method; type: functional, organism-based; conditions: dose 100.0 µg/ml
Ralstonia solanacearum = assay: Antimicrobial activity against Ralstonia solanacearum assessed as reduction in bacterial growth at 100 ug/ml measured after 48 hrs by double dilution method; type: functional, organism-based; conditions: dose 100.0 µg/ml
Pseudomonas sp. [3] = assay: Antimicrobial activity against Pseudomonas sp. assessed as reduction in bacterial growth measured after 48 hrs by double dilution method; type: functional

In the case of `C[C@H](O)[C@H]1NC(=O)[C@@H](Cc2c[nH]c3ccccc23)NC1=O`, the MIC (Bacillus subtilis; dose 100 µg/ml) was 25 µg/mL (≈ 87 µM), the Activity (Fusarium oxysporum) was “inactive” and the Activity (Phytophthora capsici) was “inactive”. For the same molecule, the Activity (Alternaria alternata) was “inactive”.
For `CS[C@@]1(Cc2c[nH]c3ccccc23)NC(=O)[C@H]([C@@H](C)O)NC1=O`, the Activity (Pseudomonas sp. [1]) was “inactive”, the Activity (Bacillus subtilis) was “inactive” and the Activity (Staphylococcus aureus) was “inactive”. The Activity [2] was “inactive”, the pIC50 (HepG2) was less than 4.70 and the pIC50 (HeLa) was less than 4.70. For the same molecule, the Activity (Bacillus cereus) was “inactive”, the Activity (Escherichia coli) was “inactive” and the Activity (Ralstonia solanacearum) was “inactive”.
For `O=C(O)c1ccc(O)c2c1Cc1cccn1-2`, the Activity (Pseudomonas sp. [1]) was “inactive”, the Activity (Bacillus subtilis) was “inactive” and the Activity (Fusarium oxysporum) was “inactive”. For the same molecule, the Activity (Staphylococcus aureus) was “inactive”, the Activity [2] was “inactive” and the Activity (Phytophthora capsici) was “inactive”. For the same molecule, the pIC50 (HepG2) was less than 4.70, the pIC50 (HeLa) was less than 4.70 and the Activity (Alternaria alternata) was “inactive”. The Activity (Bacillus cereus) was “inactive”, the Activity (Escherichia coli) was “inactive” and the Activity (Ralstonia solanacearum) was “inactive”.
`C[C@@H](O)[C@]12SS[C@@]3(C(=O)N1C)[C@H](O)[C@@]1(c4c[nH]c5ccccc45)c4ccccc4N[C@H]1N3C2=O` was tested, and the Activity (Pseudomonas sp. [1]) was “inactive”, the Activity (Bacillus subtilis) was “inactive” and the Activity (Staphylococcus aureus) was “inactive”. The Activity [2] was “inactive”, the pIC50 (HepG2) was 6.22 and the pIC50 (HeLa) was 6.38. The Activity (Bacillus cereus) was “inactive”, the Activity (Escherichia coli) was “inactive” and the Activity (Ralstonia solanacearum) was “inactive”.
With `C[C@@H](O)[C@@H]1NC(=O)[C@H](Cc2c[nH]c3ccccc23)NC1=O` the Activity (Pseudomonas sp. [1]) was “inactive”, the Activity (Bacillus subtilis) was “inactive” and the Activity (Fusarium oxysporum) was “inactive”. The Activity (Staphylococcus aureus) was “inactive”, the Activity [2] was “inactive” and the Activity (Phytophthora capsici) was “inactive”. It also gave a pIC50 (HepG2) of less than 4.70, an MIC (Pseudomonas sp. [3]) of 50 µg/mL (≈ 174 µM) and a pIC50 (HeLa) of less than 4.70. For the same molecule, the Activity (Alternaria alternata) was “inactive”, the Activity (Bacillus cereus) was “inactive” and the Activity (Escherichia coli) was “inactive”. For the same molecule, the Activity (Ralstonia solanacearum) was “inactive”.
With `CS[C@@]1(Cc2c[nH]c3ccccc23)NC(=O)[C@@](SC)([C@@H](C)O)NC1=O` the Activity (Pseudomonas sp. [1]) was “inactive”, the Activity (Bacillus subtilis) was “inactive” and the Activity (Staphylococcus aureus) was “inactive”. For the same molecule, the Activity [2] was “inactive”, the pIC50 (HepG2) was less than 4.70 and the pIC50 (HeLa) was less than 4.70. The Activity (Bacillus cereus) was “inactive”, the Activity (Escherichia coli) was “inactive” and the Activity (Ralstonia solanacearum) was “inactive”.
`C[C@@H](O)[C@@H]1OC(=O)[C@@H]2[C@H]3c4c[nH]c5cccc(c45)C[C@H]3C(C)(C)N2C1=O` was tested, and the Activity (Pseudomonas sp. [1]) was “inactive”, the Activity (Bacillus subtilis) was “inactive” and the MIC (Fusarium oxysporum) was 50 µg/mL (≈ 141 µM). For the same molecule, the Activity (Staphylococcus aureus) was “inactive”, the Activity [2] was “inactive” and the Activity (Phytophthora capsici) was “inactive”. For the same molecule, the pIC50 (HepG2) was less than 4.70, the pIC50 (HeLa) was less than 4.70 and the Activity (Alternaria alternata) was “inactive”. The Activity (Bacillus cereus) was “inactive”, the Activity (Escherichia coli) was “inactive” and the Activity (Ralstonia solanacearum) was “inactive”.
For `CS[C@@H]1C(=O)N2[C@@H]3Nc4ccccc4[C@]3(c3c[nH]c4ccccc34)[C@@H](O)[C@@]2(SC)C(=O)N1C`, the Activity (Pseudomonas sp. [1]) was “inactive”, the Activity (Bacillus subtilis) was “inactive” and the Activity (Staphylococcus aureus) was “inactive”. The Activity [2] was “inactive”, the pIC50 (HepG2) was less than 4.70 and the pIC50 (HeLa) was less than 4.70. For the same molecule, the Activity (Bacillus cereus) was “inactive”, the Activity (Escherichia coli) was “inactive” and the Activity (Ralstonia solanacearum) was “inactive”.
`C[C@@H](O)[C@]12SS[C@@]3(C(=O)N1C)[C@H](O)C1([C@]45c6ccccc6N[C@H]4N4C(=O)[C@@]6([C@@H](C)O)SS[C@@]4(C(=O)N6C)[C@@H]5O)c4ccccc4N[C@H]1N3C2=O` (stereo not given in full) was tested, and the Activity (Pseudomonas sp. [1]) was “inactive”, the Activity (Bacillus subtilis) was “inactive” and the Activity (Staphylococcus aureus) was “inactive”. The Activity [2] was “inactive”, the pIC50 (HepG2) was 6.43 and the pIC50 (HeLa) was 6.92. The Activity (Bacillus cereus) was “inactive”, the Activity (Escherichia coli) was “inactive” and the Activity (Ralstonia solanacearum) was “inactive”.
In the case of `CN1C(=O)C(=O)N2C(=C[C@@]3(c4c[nH]c5ccccc45)c4ccccc4N[C@@H]23)C1=O`, the Activity (Pseudomonas sp. [1]) was “inactive”, the Activity (Bacillus subtilis) was “inactive” and the Activity (Staphylococcus aureus) was “inactive”. For the same molecule, the Activity [2] was “inactive”, the pIC50 (HepG2) was less than 4.70 and the pIC50 (HeLa) was less than 4.70. For the same molecule, the Activity (Bacillus cereus) was “inactive”, the Activity (Escherichia coli) was “inactive” and the Activity (Ralstonia solanacearum) was “inactive”.
